Experimental data: ChEMBL document CHEMBL4390652, “Design, biological evaluation and X-ray crystallography of nanomolar multifunctional ligands targeting simultaneously acetylcholinesterase and glycogen synthase kinase-3” (Eur J Med Chem, 2019)

Assays:
[1] = target: Cyclin-dependent kinase 9 (Homo sapiens) (UniProt P50750); experiment: Binding affinity to wild-type human full length CDK9 (M1 to F372 residues) expressed in bacterial expression system assessed as residual binding level at 10 uM by Kinomescan method relative to control
[2] = target: Protein kinase C eta type (Homo sapiens) (UniProt P24723); experiment: Binding affinity to wild-type human partial length PRKCH (S324 to P683 residues) expressed in bacterial expression system assessed as residual binding level at 10 uM by Kinomescan method relative to control
[3] = tested on: Tyrosine-protein kinase ABL1 (Homo sapiens), P00519 [Y253F]; experiment: Binding affinity to human phosphorylated ABL1 Y253F mutant (S229 to K512 residues) expressed in mammalian expression system assessed as residual binding level at 10 uM by Kinomescan method relative to control
[4] = target: Insulin receptor (Homo sapiens) (UniProt P06213); experiment: Binding affinity to wild-type human partial length INSR (P997 to E1318 residues) expressed in mammalian expression system assessed as residual binding level at 10 uM by Kinomescan method relative to control
[5] = target: Serine/threonine-protein kinase RIO2 (Homo sapiens) (UniProt Q9BVS4); experiment: Binding affinity to wild-type human partial length RIOK2 (M1 to D313 residues) expressed in mammalian expression system assessed as residual binding level at 10 uM by Kinomescan method relative to control
[6] = target: Tyrosine-protein kinase HCK (Homo sapiens) (UniProt P08631); experiment: Binding affinity to wild-type human full length HCK (M22 to P526 residues) expressed in bacterial expression system assessed as residual binding level at 10 uM by Kinomescan method relative to control
[7] = target: Phosphatidylinositol 4-kinase beta (Homo sapiens) (UniProt Q9UBF8); experiment: Binding affinity to wild-type human full length PIK4CB (M1 to M828 residues) expressed in mammalian expression system assessed as residual binding level at 10 uM by Kinomescan method relative to control
[8] = target: Serine/threonine-protein kinase Nek4 (Homo sapiens) (UniProt P51957); experiment: Binding affinity to wild-type human full length NEK4 (M1 to F841 residues) expressed in mammalian expression system assessed as residual binding level at 10 uM by Kinomescan method relative to control
[9] = tested on: Receptor-type tyrosine-protein kinase FLT3 (Homo sapiens), P36888 [UNDEFINED MUTATION]; experiment: Binding affinity to human partial length FLT3 ITD/D835V double mutant expressed in bacterial expression system assessed as residual binding level at 10 uM by Kinomescan method relative to control
[10] = tested on: Tyrosine-protein kinase ABL1 (Homo sapiens), P00519 [T315I]; experiment: Binding affinity to human phosphorylated ABL1 T315I mutant (S229 to K512 residues) expressed in mammalian expression system assessed as residual binding level at 10 uM by Kinomescan method relative to control
[11] = target: Serine/threonine-protein kinase 33 (Homo sapiens) (UniProt Q9BYT3); experiment: Binding affinity to wild-type human full length STK33 (M1 to L514 residues) expressed in bacterial expression system assessed as residual binding level at 10 uM by Kinomescan method relative to control
[12] = target: Casein kinase I isoform alpha-like (Homo sapiens) (UniProt Q8N752); experiment: Binding affinity to wild-type human full length CSNK1A1L (M1 to N337 residues) expressed in bacterial expression system assessed as residual binding level at 10 uM by Kinomescan method relative to control
[13] = target: Dual specificity mitogen-activated protein kinase kinase 2 (Homo sapiens) (UniProt P36507); experiment: Binding affinity to wild-type human full length MEK2 (M1 to V400 residues) expressed in mammalian expression system assessed as residual binding level at 10 uM by Kinomescan method relative to control
[14] = target: High affinity nerve growth factor receptor (Homo sapiens) (UniProt P04629); experiment: Binding affinity to wild-type human partial length TRKA (G475 to G790 residues) expressed in mammalian expression system assessed as residual binding level at 10 uM by Kinomescan method relative to control
[15] = target: Cytoplasmic tyrosine-protein kinase BMX (Homo sapiens) (UniProt P51813); experiment: Binding affinity to wild-type human full length BMX (M1 to H675 residues) expressed in bacterial expression system assessed as residual binding level at 10 uM by Kinomescan method relative to control
[16] = target: SRSF protein kinase 2 (Homo sapiens) (UniProt P78362); experiment: Binding affinity to wild-type human full length SRPK2 (M1 to S686 residues) expressed in bacterial expression system assessed as residual binding level at 10 uM by Kinomescan method relative to control
[17] = target: Serine/threonine-protein kinase TBK1 (Homo sapiens) (UniProt Q9UHD2); experiment: Binding affinity to wild-type human full length TBK1 (M1 to L729 residues) expressed in mammalian expression system assessed as residual binding level at 10 uM by Kinomescan method relative to control
[18] = tested on: Tyrosine-protein kinase ABL1 (Homo sapiens), P00519 [F317I]; experiment: Binding affinity to human phosphorylated ABL1 F317I mutant (S229 to K512 residues) expressed in mammalian expression system assessed as residual binding level at 10 uM by Kinomescan method relative to control
[19] = target: Ephrin type-B receptor 3 (Homo sapiens) (UniProt P54753); experiment: Binding affinity to wild-type human partial length EPHB3 (Q599 to T928 residues) expressed in bacterial expression system assessed as residual binding level at 10 uM by Kinomescan method relative to control
[20] = target: Mitogen-activated protein kinase kinase kinase 6 (Homo sapiens) (UniProt O95382); experiment: Binding affinity to wild-type human partial length ASK2 (M278 to R972 residues) expressed in mammalian expression system assessed as residual binding level at 10 uM by Kinomescan method relative to control
[21] = target: Death-associated protein kinase 2 (Homo sapiens) (UniProt Q9UIK4); experiment: Binding affinity to wild-type human full length DAPK2 (M1 to S370 residues) expressed in bacterial expression system assessed as residual binding level at 10 uM by Kinomescan method relative to control
[22] = target: Mitogen-activated protein kinase kinase kinase 9 (Homo sapiens) (UniProt P80192); experiment: Binding affinity to wild-type human partial length MLK1 (V88 to W426 residues) expressed in bacterial expression system assessed as residual binding level at 10 uM by Kinomescan method relative to control
[23] = target: Ribosomal protein S6 kinase alpha-4 (Homo sapiens) (UniProt O75676); experiment: Binding affinity to wild-type human partial length N-terminal RPS6KA4 kinase domain 1 expressed in bacterial expression system assessed as residual binding level at 10 uM by Kinomescan method relative to control
[24] = target: Cyclin-dependent kinase 14 (Homo sapiens) (UniProt O94921); experiment: Binding affinity to wild-type human full length PFTK1 (M1 to H451 residues) expressed in bacterial expression system assessed as residual binding level at 10 uM by Kinomescan method relative to control
[25] = target: Serine/threonine-protein kinase DCLK3 (Homo sapiens) (UniProt Q9C098); experiment: Binding affinity to wild-type human partial length DCAMKL3 (E140 to V628 residues) expressed in bacterial expression system assessed as residual binding level at 10 uM by Kinomescan method relative to control

Cytoplasmic tyrosine-protein kinase BMX (Homo sapiens), sequence (P51813 whole entry, the tested form may be a part): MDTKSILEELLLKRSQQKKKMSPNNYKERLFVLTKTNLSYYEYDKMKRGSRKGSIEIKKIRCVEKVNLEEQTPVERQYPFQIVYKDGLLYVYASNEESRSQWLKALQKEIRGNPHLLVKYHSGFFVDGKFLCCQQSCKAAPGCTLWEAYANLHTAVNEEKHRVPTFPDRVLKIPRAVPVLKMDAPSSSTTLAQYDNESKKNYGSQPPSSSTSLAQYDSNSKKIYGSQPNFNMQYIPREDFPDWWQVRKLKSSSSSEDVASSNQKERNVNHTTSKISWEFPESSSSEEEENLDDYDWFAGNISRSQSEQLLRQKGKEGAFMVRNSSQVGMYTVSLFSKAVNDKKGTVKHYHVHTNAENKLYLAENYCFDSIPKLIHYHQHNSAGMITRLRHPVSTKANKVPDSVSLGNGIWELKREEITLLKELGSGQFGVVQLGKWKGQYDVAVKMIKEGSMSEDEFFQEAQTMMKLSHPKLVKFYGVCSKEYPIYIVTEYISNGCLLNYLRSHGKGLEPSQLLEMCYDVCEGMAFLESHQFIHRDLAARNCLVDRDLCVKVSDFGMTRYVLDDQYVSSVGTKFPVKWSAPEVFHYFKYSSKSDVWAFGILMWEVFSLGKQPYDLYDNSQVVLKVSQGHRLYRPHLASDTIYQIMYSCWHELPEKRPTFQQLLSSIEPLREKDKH
Serine/threonine-protein kinase TBK1 (Homo sapiens), sequence (Q9UHD2 whole entry, the tested form may be a part): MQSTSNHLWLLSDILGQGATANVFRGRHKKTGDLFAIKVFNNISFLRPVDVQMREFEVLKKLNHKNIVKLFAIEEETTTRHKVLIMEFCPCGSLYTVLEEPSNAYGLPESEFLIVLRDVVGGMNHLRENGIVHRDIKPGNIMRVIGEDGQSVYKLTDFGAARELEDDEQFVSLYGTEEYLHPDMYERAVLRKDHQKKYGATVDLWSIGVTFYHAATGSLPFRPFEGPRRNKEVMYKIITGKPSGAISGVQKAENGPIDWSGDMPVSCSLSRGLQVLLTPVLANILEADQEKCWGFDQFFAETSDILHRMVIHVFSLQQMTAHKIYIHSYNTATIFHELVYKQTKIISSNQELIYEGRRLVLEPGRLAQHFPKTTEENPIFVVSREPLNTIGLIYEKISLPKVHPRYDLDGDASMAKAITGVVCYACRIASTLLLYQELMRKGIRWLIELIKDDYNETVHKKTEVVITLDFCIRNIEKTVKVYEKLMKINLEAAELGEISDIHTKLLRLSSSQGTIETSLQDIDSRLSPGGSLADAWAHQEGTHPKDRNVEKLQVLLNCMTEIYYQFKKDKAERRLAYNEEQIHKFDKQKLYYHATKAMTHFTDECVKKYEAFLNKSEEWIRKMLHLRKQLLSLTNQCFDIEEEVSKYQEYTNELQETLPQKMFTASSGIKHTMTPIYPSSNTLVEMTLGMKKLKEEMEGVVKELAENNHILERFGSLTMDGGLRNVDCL
Cyclin-dependent kinase 14 (Homo sapiens), sequence (O94921 whole entry, the tested form may be a part): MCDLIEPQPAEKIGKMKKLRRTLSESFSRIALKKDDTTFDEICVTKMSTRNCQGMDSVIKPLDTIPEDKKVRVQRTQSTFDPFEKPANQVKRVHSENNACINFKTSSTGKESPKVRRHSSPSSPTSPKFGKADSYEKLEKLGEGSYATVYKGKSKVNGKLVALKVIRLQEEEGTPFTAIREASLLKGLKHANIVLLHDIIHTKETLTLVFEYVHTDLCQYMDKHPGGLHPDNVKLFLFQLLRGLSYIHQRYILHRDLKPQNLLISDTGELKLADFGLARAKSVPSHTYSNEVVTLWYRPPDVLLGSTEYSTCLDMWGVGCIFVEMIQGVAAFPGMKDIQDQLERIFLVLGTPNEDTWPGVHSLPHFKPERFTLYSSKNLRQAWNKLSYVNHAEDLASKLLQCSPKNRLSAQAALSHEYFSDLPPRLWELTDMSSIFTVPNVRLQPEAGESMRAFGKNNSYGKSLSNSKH
Receptor-type tyrosine-protein kinase FLT3 (Homo sapiens), P36888 [UNDEFINED MUTATION], sequence (P36888 whole entry, looked up, stated change not applied, the tested form may be a part): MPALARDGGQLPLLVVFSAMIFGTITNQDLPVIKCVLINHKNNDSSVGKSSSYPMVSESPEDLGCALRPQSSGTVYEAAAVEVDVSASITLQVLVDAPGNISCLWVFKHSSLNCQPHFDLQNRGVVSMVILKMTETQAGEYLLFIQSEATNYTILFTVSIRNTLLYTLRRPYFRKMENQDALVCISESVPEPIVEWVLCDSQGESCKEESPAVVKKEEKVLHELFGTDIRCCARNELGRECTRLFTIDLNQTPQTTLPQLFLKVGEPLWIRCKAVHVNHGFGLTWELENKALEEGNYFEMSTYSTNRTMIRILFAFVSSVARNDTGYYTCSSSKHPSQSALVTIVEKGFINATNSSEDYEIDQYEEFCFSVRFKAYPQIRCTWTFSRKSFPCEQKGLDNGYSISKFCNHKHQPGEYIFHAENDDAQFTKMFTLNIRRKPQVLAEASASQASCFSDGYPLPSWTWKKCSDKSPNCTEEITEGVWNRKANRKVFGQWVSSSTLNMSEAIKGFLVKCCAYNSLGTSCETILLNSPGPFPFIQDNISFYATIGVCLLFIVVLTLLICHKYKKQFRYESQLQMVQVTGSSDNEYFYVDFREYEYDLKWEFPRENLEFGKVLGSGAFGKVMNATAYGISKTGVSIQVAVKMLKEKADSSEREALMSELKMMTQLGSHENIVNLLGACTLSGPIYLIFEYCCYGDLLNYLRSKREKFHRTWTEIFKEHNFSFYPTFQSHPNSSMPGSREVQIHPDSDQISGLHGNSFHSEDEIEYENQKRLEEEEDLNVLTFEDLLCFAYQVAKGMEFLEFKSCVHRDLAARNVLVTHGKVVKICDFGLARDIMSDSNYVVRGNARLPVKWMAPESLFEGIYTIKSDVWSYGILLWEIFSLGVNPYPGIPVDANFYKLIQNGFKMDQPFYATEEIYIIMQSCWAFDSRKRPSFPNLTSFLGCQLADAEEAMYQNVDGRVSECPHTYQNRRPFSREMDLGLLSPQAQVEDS
Death-associated protein kinase 2 (Homo sapiens), sequence (Q9UIK4 whole entry, looked up, the tested form may be a part): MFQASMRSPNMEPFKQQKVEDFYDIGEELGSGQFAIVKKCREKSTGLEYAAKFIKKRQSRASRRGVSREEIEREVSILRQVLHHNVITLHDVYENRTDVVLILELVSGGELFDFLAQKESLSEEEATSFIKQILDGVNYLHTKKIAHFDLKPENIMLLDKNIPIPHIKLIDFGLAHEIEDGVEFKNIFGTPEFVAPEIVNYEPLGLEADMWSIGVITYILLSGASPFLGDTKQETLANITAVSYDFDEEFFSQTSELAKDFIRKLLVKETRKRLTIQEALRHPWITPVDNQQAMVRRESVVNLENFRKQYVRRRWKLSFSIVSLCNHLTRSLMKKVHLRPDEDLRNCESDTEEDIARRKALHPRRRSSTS
Serine/threonine-protein kinase Nek4 (Homo sapiens), sequence (P51957 whole entry, looked up, the tested form may be a part): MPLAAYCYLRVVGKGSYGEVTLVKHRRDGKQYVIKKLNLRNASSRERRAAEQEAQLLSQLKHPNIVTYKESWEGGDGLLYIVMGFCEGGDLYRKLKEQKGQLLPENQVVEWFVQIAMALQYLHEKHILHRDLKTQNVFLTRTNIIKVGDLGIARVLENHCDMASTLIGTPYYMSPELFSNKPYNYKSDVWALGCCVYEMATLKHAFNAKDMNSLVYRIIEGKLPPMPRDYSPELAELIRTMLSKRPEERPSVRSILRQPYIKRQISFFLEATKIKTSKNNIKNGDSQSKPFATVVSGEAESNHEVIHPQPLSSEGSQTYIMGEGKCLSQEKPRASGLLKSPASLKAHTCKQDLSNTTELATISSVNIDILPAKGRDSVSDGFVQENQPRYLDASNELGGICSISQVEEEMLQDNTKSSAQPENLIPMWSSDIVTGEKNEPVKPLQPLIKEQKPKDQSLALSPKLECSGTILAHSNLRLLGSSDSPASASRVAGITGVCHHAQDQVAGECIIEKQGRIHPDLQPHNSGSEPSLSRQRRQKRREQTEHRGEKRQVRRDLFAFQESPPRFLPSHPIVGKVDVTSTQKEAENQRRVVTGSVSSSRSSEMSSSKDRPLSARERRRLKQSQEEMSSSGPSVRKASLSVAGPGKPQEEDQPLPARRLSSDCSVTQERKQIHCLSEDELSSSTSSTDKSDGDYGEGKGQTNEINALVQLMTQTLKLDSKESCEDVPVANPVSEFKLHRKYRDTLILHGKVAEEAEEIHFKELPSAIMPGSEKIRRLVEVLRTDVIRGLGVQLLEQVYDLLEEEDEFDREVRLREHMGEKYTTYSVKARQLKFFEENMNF
Serine/threonine-protein kinase 33 (Homo sapiens), sequence (Q9BYT3 whole entry, looked up, the tested form may be a part, canonical isoform): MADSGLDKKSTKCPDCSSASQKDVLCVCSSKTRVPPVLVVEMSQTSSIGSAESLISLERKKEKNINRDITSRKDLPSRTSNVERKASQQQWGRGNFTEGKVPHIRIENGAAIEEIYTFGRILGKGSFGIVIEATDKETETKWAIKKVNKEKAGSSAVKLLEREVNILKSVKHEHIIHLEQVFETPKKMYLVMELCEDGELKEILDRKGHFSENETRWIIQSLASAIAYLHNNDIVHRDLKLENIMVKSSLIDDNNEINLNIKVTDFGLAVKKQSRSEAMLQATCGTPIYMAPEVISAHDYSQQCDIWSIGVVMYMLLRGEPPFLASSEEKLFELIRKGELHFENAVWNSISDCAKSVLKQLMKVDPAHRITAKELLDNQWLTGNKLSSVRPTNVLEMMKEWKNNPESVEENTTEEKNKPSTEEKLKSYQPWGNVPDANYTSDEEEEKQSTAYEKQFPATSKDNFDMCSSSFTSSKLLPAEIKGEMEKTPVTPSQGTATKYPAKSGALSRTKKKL
Casein kinase I isoform alpha-like (Homo sapiens), sequence (Q8N752 whole entry, the tested form may be a part, canonical isoform): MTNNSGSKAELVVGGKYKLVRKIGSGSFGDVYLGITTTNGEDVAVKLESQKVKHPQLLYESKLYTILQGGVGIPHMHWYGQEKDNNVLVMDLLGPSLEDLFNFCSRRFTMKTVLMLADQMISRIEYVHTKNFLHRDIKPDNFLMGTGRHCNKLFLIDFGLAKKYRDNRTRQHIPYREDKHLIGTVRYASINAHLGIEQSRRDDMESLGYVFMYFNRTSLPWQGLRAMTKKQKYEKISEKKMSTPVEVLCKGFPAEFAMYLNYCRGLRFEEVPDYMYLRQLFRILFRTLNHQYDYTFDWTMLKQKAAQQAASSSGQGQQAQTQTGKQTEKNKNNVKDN

## O=C(Nc1cc(-c2cn(CCNc3c4c(nc5ccccc35)CCCC4)nn2)ccn1)Nc1cccc2c1C1CCCCN1C2=O (racemic)
[1]
  Activity: 3.8%
[2]
  Activity: 3.9%
[3]
  Activity: 0.95%
[4]
  Activity: 17%
[5]
  Activity: 22%
[6]
  Activity: 100%
[7]
  Activity: 28%
[8]
  Activity: 98%
[9]
  Activity: 0.23%
[10]
  Activity: 2.9%
[11]
  Activity: 6.7%
[12]
  Activity: 4.5%
[13]
  Activity: 11%
[14]
  Activity: 8.6%
[15]
  Activity: 100%
[16]
  Activity: 35%
[17]
  Activity: 10%
[18]
  Activity: 47%
[19]
  Activity: 100%
[20]
  Activity: 87%
[21]
  Activity: 72%
[22]
  Activity: 38%
[23]
  Activity: 22%
[24]
  Activity: 28%
[25]
  Activity: 33%
